The subject of test [1] is high-threshold voltage-dependent Ca^2+ channels in DRG neurons. The experiment in a line: Perforated patch recording of DAMGO block of Ba2+ currents in cultured DRG neurons. The format is cell-based, rat. The conditions noted are these: for IC50: read-out: apparent affinity for DAMGO inhibition (IC50). On the procedure:
Cells were superfused (2 ml/min) at 23-24° C. with external solution containing 130 mM tetraethylammonium (“TEA”) chloride, 5 mM CsCl, 1.5 mM BaCl2, 1 mM MgCl2, 10 mM Hepes, and 10 mM glucose (pH 7.2, adjusted with TEA-OH; osmolarity, 300 mosM). Patch electrodes (resistance, 2.2-3.5 MΩ) were filled with internal solution containing 100 mM CsMeSO3, 40 mM CsCl, 10 mM Hepes, and 300 μg/ml amphotericin B (pH=7.3 adjusted with CsOH, 320 mosM). The currents were filtered at 2-5 kHz and sampled at 100 μs per point. [D-Ala^2,N-MePhe^4,Gly^5-ol]enkephalin (“DAMGO”) was pressure delivered to the recorded cells through a drug applicator (8).
All data were expressed as mean±SEM. Paw withdrawal latencies obtained from different rats were averaged. Changes before and after morphine treatment within one rat group were analyzed with one-way ANOVA followed by post hoc Newman-Keuls analysis. Antinociceptive responses were expressed as maximum possible effect (“MPE”) by using the relation MPE=(postdrug PWL−baseline PWL)/(cutoff PWL−baseline PWL)×100. Dose-response curves were plotted as MPE vs. dose and fitted with the logistic equation. The doses estimated to produce 50% MPE, A50, and 95% confidence intervals were determined. The dose-response curves for DAMGO in current measurements were fitted with the Hill equation, i.e., response=(max−min)×[IC50/(IC50^n+dose^n)]+min, where max and min are maximal and minimal responses, IC50 is the dose for 50% of the block, and n is the Hill coefficient. The 95% confidence band analysis was used to evaluate the significance of the change in the IC50 and maximal block. To assess the significance of changes between two means, the Student's t test was used. A p<0.05 was considered significant.
It is well established that μ-opioids inhibit high-threshold voltage-dependent Ca^2+ currents in DRG neurons. […] Seven days after the infection, perforated patch whole-cell recordings were performed on the cells. External Ca^2+ was replaced by Ba^2+ to avoid rapid rundown of current responses.

The subject of test [2] is spared nerve injury (SNI) rats. The experiment in a line: Mechanical allodynia (von Frey) in SNI rats treated with rAAV-δOR, intrathecal deltorphin or morphine. Format: in vivo, rat. On the procedure:
Similar method as described before was used to induce inflammation To produce the nerve-injury in the rat paw, spared nerve injury (SNI) in rats was generated by transecting the sural and common peroneal sciatic nerves in the left rat leg while leaving the tibal nerve intact. To induce inflammation in the trigeminal nerve innervated areas, rats were lightly anesthetized with pentobarbital. CFA (10-50 μl) was injected into the rat temporomandibular joint (TMJ) 3-4 weeks after infection of rAAV-dOR. Behavioral experiments were performed 5-14 days after the CFA injection. To induce spare nerve injury in the trigeminal nerve, the infraorbital nerve branch of the maxillary nerve was ligated and the ophthalmic and mandibular nerves were left intact.
δ-opioid receptor expression was enhanced in dorsal root ganglia (DRGs) by injecting rAAV-dOR into the ganglion or into the sciatic nerve or by injecting dOR-FLAG DNA intrathecally. The δ-OR receptor expression was enhanced in the trigeminal ganglon by injecting rAAV-dOR into the trigeminal ganglion or into the maxillary nerve.
Three to four weeks later, the effects of morphine or other analgesic drugs on mechanical allodynia in SNI rats were determined behaviorally. Rat hindpaw withdrawal (PW) thresholds in response to stimulation of Von Frey filaments were measured. Each test consisted of applications of a series of von Frey filaments (ranging from 0.4 to 15.0 g) to the lateral plantar surface of the tested paw until it withdrew or for a maximum of 60 s. To avoid injury during tests, the cutoff strength of the von Frey filament was 15 g. The up and down method described by Chaplan et al. (12) was used to determine the PW threshold. Mechanical threshold or the maximum possible effect (MPE), i.e., ((test−min)/(max−min)]×100%, was used to calculate morphine mechanical analgesic effects.

The test system of test [3] is injured rats (sciatic nerve ligation). To be noted: Kabli and Cahill; cited from earlier work.
Test [4] deals with rats (thermal hyperalgesia, CFA). The experiment in a line: Paw withdrawal latency to radiant heat, intrathecal morphine, rats with rAAV injected into the sciatic nerve. The conditions noted are these: rat, in vivo.
Test [5] relates to rats (thermal nociceptive responses). The experiment in a line: Paw withdrawal latency to radiant heat, s.c. morphine, rats with rAAV injected into L4-L5 ganglia. Format: in vivo, rat. The conditions noted are these: 4 mg/kg morphine, non-CFA rats.
The test system of test [6] is spared nerve injury (SNI) rats. The experiment in a line: Mechanical allodynia (von Frey) in spared nerve injury rats, intrathecal morphine, rAAV-μOR. Format: in vivo, rat. The conditions noted are these: intrathecal 1-10 μg, SNI rats without rAAV.
Test [7] has as its system rats (inflammatory pain, CFA). The experiment in a line: Morphine antinociception (MPE, radiant heat) in CFA rats after DRG or sciatic nerve injection of rAAV. The format is in vivo, rat. The conditions noted are these: s.c. morphine, rAAV injected into DRGs.

“And” between values parts separate entries of the source, which are not always exact repeats. Equal values may be shown once. Read-outs that look alike come from different tables or passages of the source.

One may read the IC50 as the concentration that gives 50% inhibition. For the molecule `C[C@@H](NC(=O)[C@@H](N)Cc1ccc(O)cc1)C(=O)NCC(=O)N(C)[C@@H](Cc1ccccc1)C(=O)NCCO` [DAMGO, [D-Ala^2,N-MePhe^4,Gly^5-ol]enkephalin], the IC50 in test [1] (rAAV-EGFP cells) turned out to be 530 ± 30 nM; in test [1] (rAAV-μOR cells) it was 170 ± 60 nM; in test [1] (untreated cells), 640 ± 190 nM. Besides, the figures for the “percentage of cells responded to DAMGO inhibition” value in test [1] (rAAV-EGFP-treated cells), in test [1] (rAAV-μOR-treated DRG neurons) and in test [1] (untreated cells) were 54.5%, 89.2% and 57.1%, respectively. Besides, in test [1] (rAAV-μOR cells, Hill fit), the “maximal block of Ba2+ currents” value was 31.63% and 31.63±0.03%.

For `CC(C)[C@H](NC(=O)[C@H](CCC(=O)O)NC(=O)[C@H](Cc1ccccc1)NC(=O)[C@@H](C)NC(=O)[C@@H](N)Cc1ccc(O)cc1)C(=O)N[C@H](C(=O)NCC(=O)O)C(C)C` [deltorphin], the “reduction of allodynic responses” value was “rather ineffective” in test [2] (SNI rats); “ineffective” in test [2] (SNI rats, listed as Deltorphin); “became effective” in test [2] (rAAV-δOR treated SNI rats). The “time for which the drug is effective in reducing allodynic responses” value in test [3] is recorded as 21 days.

As for `CN1CC[C@]23c4c5ccc(O)c4O[C@H]2[C@@H](O)C=C[C@H]3[C@H]1C5` [morphine], in test [4], the “time after which the effect dissipated” value is 50 min and the “time at which MPE peaked” value was 15 to 20 min. In test [5], the “time at which antinociceptive effects reached a maximum” value was in the range of 30 to 40 min and the “time in which antinociceptive effects dissipated” value fell in the range of 80 to 90 min. In test [6], the “relief of mechanical allodynia” value is “not effective”. Besides, in test [7], the “time at which MPEs peaked” value lay in the range of 30 to 40 min; the “time within which MPEs dissipated” value was 100 to 120 min and 100 min. For the same molecule, in test [3], the “time for which the drug is effective in reducing allodynic responses” value is listed as 14 days.

These data come from patent US8546348B2, “Upregulation of opioid receptors for management” (The Board of Regents of the University of Texas System, priority 2003, dated 2013).
